Tests used:
[1] = test system: HIV-1 infection of TZM-bl cells; experiment: HIV-1 infectivity enhancement assay, β-galactosidase luminescence; type: cell-based; settings: for Log10 Inf. rel. to EF-C: log10 of HIV-1 infection of TZM-bl cells relative to EF-C, Fig S15 source data, asymmetric std dev errors
[2] = Zeta-potential measurement; type: physicochemical; settings: zeta potential of peptide; Fig S15 source data
Procedure: 4 µL of 1 mg/mL peptide fibrils solution is added to a 20 µL, 50 µM ThT–solution in PBS. The mixture is incubated for 15 min at RT to allow binding of ThT dye with β–sheet rich structures. For reference PBS (4 µL) was added instead of peptide fibril solution. The samples were placed in black UV Star® 384 microliter well–plates (Greiner bio–one). Fluorescence spectra were recorded on an Infinite® M1000 PRO microplate reader (Tecan) at λem = 488 nm upon excitation at λex = 440 nm with 10 nm bandwidths and multiple reads per well (3×3). Measurements were repeated in triplicates and averaged with standard deviation. […] Zeta-Potential. For the determination of the surface charge of aggregated peptides zeta-potential measurements were conducted with a Zetasizer Nano ZS, Malvern Instruments. Unless stated otherwise the peptides were dissolved from DMSO (10 mg/mL) in PBS (pH 7.4) to concentration of 1 mg/mL and incubated for 1d at RT. Just before the measurement the 60 µL of the peptides were further diluted in 600 µL KCl (aq, 1 mM) in a 1 mL disposable folded capillary cells (DTS–1060, Zetasizer Nano series, Malvern). The zeta potential of the peptides was derived from the electrophoretic mobility based on the Smoluchowski formula. All measurements were averaged over two individually performed experiments and conducted in triplicates for each sample. Aggregate analysis. […] Furthermore, fluorescence microscopy was conducted by staining 1 µL preformed fibrils (1 mg/mL) with 9 µL ThT (50 µM). Brightfield microscopy was performed simultaneously to evaluate aggregation also for non ThT-active fibrils. The measurements were performed on a Leica DMi8 microscope with 10x air objective and equipped with a Leica MC170 HD camera with a filter setting λem = 527/30 nm upon excitation at λex = 480/40 nm) and processed with the Leica LASX software. To quantify size and number of microscopic aggregation of particles > 10 µm^2 at least 3 independently measured images were analyzed via the 3D object counter analysis tool of ImageJ, v 1.53f51. Sum–frequency generation. The SFG experiments were carried out with a femtosecond Ti: Sapphire amplified laser system (Spitfire Ace, Spectra–Physics, 800 nm, 40 fs, 1 kHz) with 5 W output power. We used 2 W to pump an optical parametric amplifier (TOPAS, light conversion) with a non–collinear difference frequency generation stage to generate broadband IR pulses. Another 1 W of the laser output passed through an etalon to generate narrowband visible pulses (10 cm^-1). The incident angles of the visible and IR beams were 36° and 41° with respect to the surface normal, respectively. The visible (13 µJ) and IR (5 µJ) pulses were overlapped spatially and temporally at the sample position. Subsequently, the generated SFG pulse was guided into a spectrograph (Acton SP 300i, Princeton Instruments), and detected with an EMCCD (Newton, Andor Technology). To avoid IR absorption of water vapor, we purged N2 for the measurement. All spectra were collected in the ssp (denoting s-, s- and p-polarized SFG, visible and IR, respectively) polarization combination. The spectra were normalized to the non–resonant signal taken from z–cut quartz after subtracting a background spectrum. […]

[3] = type: physicochemical; design: key to Fibril / Fibril Formation / TEM 2cat / Fibril: 1 = fibrils present; 0 non-fibrillar structures; settings: TEM, 1 mg/mL, uranyl acetate stain, qualitative
Procedure: For ATR FT–IR spectroscopy measurements, 200 µL of the respective 1 mg/mL PNF solution was lyophilized and the resulting powder used for measurement. All spectra were recorded on a Bruker Tensor 27 spectrometer with a diamond crystal as ATR element (PIKE MiracleTM, spectral resolution 2 cm^-1). Every sample was measured with 64 scans. Data were analyzed with OriginLab software and calculation of β–sheet content was conducted according to a previous report. TEM. For TEM measurements 5 µL of PNF fibrils (1 mg/mL) were placed on copper grids coated with carbon and formvar layer (300 mesh, Plano GmbH). After 10 min incubation time, the grids were staining with 4% uranyl acetate solution for 2.5 min and washed with water. Measurements were performed on a Jeol 1400 electron microscope with 120 kV acceleration voltage. CR Assay. For the determination of the amount of peptide monomer converting into nanostructures the amine reactive dye fluorescamine was used analogous to a previous reported protocol. Briefly, 100 µL of the preformed PNF solution was centrifuged in a Vivaspin 500 tube (3 kDa MWCO) to separate fibers from free peptide monomer (16200 x g, 4 °C, 45 min). The filtrate and 100 μL of the non-filtered PNF sample were lyophilized and dissolved in 30 μL DMSO. 10 μL of the filtrate and non-filtered DMSO samples were submitted in a black UV Star® 384 microliter well–plates (Greiner bio–one) and 3 μL of the fluorescamine solution (10 mg/mL, DMSO) was added to measure the fluorescence enhancement. After 20 min of incubation at RT, fluorescence was recorded on an Infinite® M1000 PRO microplate reader (Tecan) at λem = 470 nm upon excitation at λex = 365 nm with 10 nm bandwidths and multiple reads per well (3×3). Measurements were repeated in triplicates and averaged with standard deviation. All values were calculated as n-fold fluorescence enhancement (DMSO only as a reference was set to 1). The conversion rate CR was defined according to the equation Eq. (3).3 CR=100−100×fluorescenceintensityfiltrate/fluorescenceintensityoriginal[%]
(§1) 1. Remarks on experimental parameters and bioinformatic descriptors
1.1 Experimental parameters
Transmission electron microscopy (TEM) measurements. TEM measurements were used to control if peptides assemble. The assemblies were categorized in non -fibrillar structures (no assembly, […]
grid but only amorphous aggregates. In contrast, peptides defined as fibrillar may also include amorphous structures. Amongst nonfibrillar assemblies also amorphous aggregates are summarized.
Amorphous aggregates are defined as structures with high β-sheet content which lack long-range order, that is crystallinity or fibril formation. It is generally assumed that these structures might be

[4] = type: physicochemical; settings: ThT-active if fluorescence at least twice the control
Procedure: 4 µL of 1 mg/mL peptide fibrils solution is added to a 20 µL, 50 µM ThT–solution in PBS. The mixture is incubated for 15 min at RT to allow binding of ThT dye with β–sheet rich structures. For reference PBS (4 µL) was added instead of peptide fibril solution. The samples were placed in black UV Star® 384 microliter well–plates (Greiner bio–one). Fluorescence spectra were recorded on an Infinite® M1000 PRO microplate reader (Tecan) at λem = 488 nm upon excitation at λex = 440 nm with 10 nm bandwidths and multiple reads per well (3×3). Measurements were repeated in triplicates and averaged with standard deviation. […] Zeta-Potential. For the determination of the surface charge of aggregated peptides zeta-potential measurements were conducted with a Zetasizer Nano ZS, Malvern Instruments. Unless stated otherwise the peptides were dissolved from DMSO (10 mg/mL) in PBS (pH 7.4) to concentration of 1 mg/mL and incubated for 1d at RT. Just before the measurement the 60 µL of the peptides were further diluted in 600 µL KCl (aq, 1 mM) in a 1 mL disposable folded capillary cells (DTS–1060, Zetasizer Nano series, Malvern). The zeta potential of the peptides was derived from the electrophoretic mobility based on the Smoluchowski formula. All measurements were averaged over two individually performed experiments and conducted in triplicates for each sample. Aggregate analysis. […] Furthermore, fluorescence microscopy was conducted by staining 1 µL preformed fibrils (1 mg/mL) with 9 µL ThT (50 µM). Brightfield microscopy was performed simultaneously to evaluate aggregation also for non ThT-active fibrils. The measurements were performed on a Leica DMi8 microscope with 10x air objective and equipped with a Leica MC170 HD camera with a filter setting λem = 527/30 nm upon excitation at λex = 480/40 nm) and processed with the Leica LASX software. To quantify size and number of microscopic aggregation of particles > 10 µm^2 at least 3 independently measured images were analyzed via the 3D object counter analysis tool of ImageJ, v 1.53f51. Sum–frequency generation. The SFG experiments were carried out with a femtosecond Ti: Sapphire amplified laser system (Spitfire Ace, Spectra–Physics, 800 nm, 40 fs, 1 kHz) with 5 W output power. We used 2 W to pump an optical parametric amplifier (TOPAS, light conversion) with a non–collinear difference frequency generation stage to generate broadband IR pulses. Another 1 W of the laser output passed through an etalon to generate narrowband visible pulses (10 cm^-1). The incident angles of the visible and IR beams were 36° and 41° with respect to the surface normal, respectively. The visible (13 µJ) and IR (5 µJ) pulses were overlapped spatially and temporally at the sample position. Subsequently, the generated SFG pulse was guided into a spectrograph (Acton SP 300i, Princeton Instruments), and detected with an EMCCD (Newton, Andor Technology). To avoid IR absorption of water vapor, we purged N2 for the measurement. All spectra were collected in the ssp (denoting s-, s- and p-polarized SFG, visible and IR, respectively) polarization combination. The spectra were normalized to the non–resonant signal taken from z–cut quartz after subtracting a background spectrum.
as §1

[5] = infectivity class (low / medium / high) of each library peptide, main list in c1-c6, same classes repeated in sub-lists of sequences containing the hydrophobicity/charge patterns P+,H0,P+,H0,P0,H0,P0, P+,H0,P0,H0,P0,H0,P0, P+,H0,P0,H0
[6] = infectivity class (low / medium / high) of the peptide in the sequence-pattern analysis, Fig. S22-A4, class limits not given

Substance | infectivity [1, 5] | Log10 Inf. rel. to EF-C [1] | Zeta-pot. / mV [2] [mV] | Fibril / Fibril Formation [3] | ThT Cat. / ThT-Fluorescence (categorical) [4] | infectivity [1, 6]
SISISRRI [CN28] | low | -1.548 | -17 | – | – | –
MKFM [CN32] | low | -1.756 | -16 | – | – | –
KYKGAIIGNIK [CN19] | low | -2.508 | -9.14 | – | – | –
KVWWNF | – | – | – | 0 | 0 (ThT-inactive (N-Fold <2)) | –
FDPFDPFDP [CN24] | low | -1.6317 | -10.9 | – | – | –
EIEIEIEI [JR12] | low | -1.748 | -8.92 | – | – | –
HGEHGE [CN6] | low | -2.193 | -12.6 | – | – | –
HHHHEIEIEIEI [JR9] | low | -1.534 | -6.91 | – | – | –
CKFC [CN33] | low | -1.959 | -19.89 | – | – | –
CETMYDKILKNLSRSR [CR16] | low | -1.716 | 0.41 | – | – | –
HRRHFRHKITKKK [CN29] | low | -1.868 | -9.223 | – | – | –
RPRGLLLGNLR [CN20] | low | -1.3163 | -8.15 | – | – | –
ILKNLSRSRKIKIQIC [TM116] | medium | -0.4741 | 18 | – | – | –
NMWQKVGTPL [JG7] | low | -1.607 | -9.62 | – | – | –
EIKIQINM [TM73] | low | -1.001 | -22.33 | – | – | low
CKIKQIIRGD [psis22] | – | -1.311 | 13.2 | – | – | low
RVWWNF | – | – | – | 0 | 0 (ThT-inactive (N-Fold <2)) | –
EFEFQF [KB11] | low | -2.485 | -24.5 | – | – | –
KFKFEFEF [MGe01] | – | -1.547 | -2.55 | – | – | low
RGDKIRGDKI [CN4] | low | -2.126 | -13.57 | – | – | –
MDQMDQMDQMDQMDQ [CN23] | low | -2.37 | -14.98 | – | – | –
KNERIKNERI [CN3] | low | -1.888 | -16 | – | – | –
FKFDKFKFDK [CN26] | low | -1.334 | -12.7 | – | – | –
TKTLTKTL [CN25] | low | -1.671 | -25.1 | – | – | –
KNDKND [CN5] | low | -1.978 | -15 | – | – | –
KVKGVGK [CN27] | low | -1.587 | -12.8 | – | – | –
HGDKCHGDKC [CN2] | low | -1.991 | -11.63 | – | – | –
KKWWNF | – | – | – | 0 | 0 (ThT-inactive (N-Fold <2)) | –
KIRGKFEKED [CN30] | low | -1.2355 | -12.7 | – | – | –

— PMC10447463, “Data-mining unveils structure–property–activity correlation of viral infectivity enhancing self-assembling peptides” (Nature Communications, 2023)
